Measurements as given in article PMC10861299, “A Systematic Survey of Reversibly Covalent Dipeptidyl Inhibitors of the SARS-CoV-2 Main Protease” (Journal of Medicinal Chemistry, 2023).
Where two headings read alike, the source gives them in different places.

Assays:
[1] = biological target: SARS-CoV-2 main protease (M^Pro) (Severe acute respiratory syndrome coronavirus 2, UniProt P0DTD1); assay: In vitro M^Pro enzymatic inhibition with fluorogenic substrate Sub3; assay type: biochemical
[2] = biological target: M^Pro-eGFP fusion protein in 293T cells (Severe acute respiratory syndrome coronavirus 2, UniProt P0DTD1); assay: cell-based; design: species or system SARS-CoV-2; details: read-out: Cellular EC50
[3] = 20 nM M^Pro, 10 μM Sub3, 30 min preincubation, read-out: Enzymatic IC50
[4] = read-out: IC50 (M^Pro enzymatic inhibition)

Structure (SMILES)	IC50 [1, 3]	IC50 [1, 4]	EC50 [2]
CC1(C)[C@@H]2[C@@H](C(=O)N[C@H](C=O)C[C@@H]3CCNC3=O)N(C(=O)CNc3ccc(Cl)cc3)C[C@@H]21 [MPI62, (1R,2S,5S)-3-((4-Chlorophenyl)glycyl)-6,6-dimethyl-N-((S)-1-oxo-3-((S)-2-oxopyrrolidin-3-yl)propan-2-yl)-3-azabicyclo[3.1.0]hexane-2-carboxamide]	990 nM	–	–
N#C[C@H](C[C@@H]1CCNC1=O)NC(=O)C1CC2(CCCC2)CN1C(=O)OCc1cccc(Cl)c1 (stereo partly drawn) [MPI66-2, 3-Chlorobenzyl 3-(((S)-1-Cyano-2-((S)-2-oxopyrrolidin-3-yl)ethyl)carbamoyl)-2-azaspiro[4.4]nonane-2-carboxylate]	3600 nM	–	–
CC(C)(C)OC(=O)N1CC2(CCC2)C[C@H]1C(=O)N[C@H](C=O)C[C@@H]1CCNC1=O [YR-B-101, tert-Butyl-(S)-7-(((S)-1-oxo-3-((S)-2-oxopyrrolidin-3-yl)propan-2-yl)carbamoyl)-6-azaspiro[3.4]octane-6-carboxylate]	> 5000 nM	–	–
CC1(C)[C@@H]2[C@@H](C(=O)N[C@H](C=O)C[C@@H]3CCNC3=O)N(C(=O)COc3ccc(Cl)cc3Cl)C[C@@H]21 [MI-14, (1R,2S,5S)-3-(2-(2,4-Dichlorophenoxy)acetyl)-6,6-dimethyl-N-((S)-1-oxo-3-((S)-2-oxopyrrolidin-3-yl)propan-2-yl)-3-azabicyclo[3.1.0]hexane-2-carboxamide, reference compound]	28 nM	≤ 50 nM	280 nM
O=C[C@H](C[C@@H]1CCNC1=O)NC(=O)[C@@H]1CC2(CC2)CN1C(=O)COc1ccc(Cl)cc1Cl [MPI63, (S)-5-(2-(2,4-Dichlorophenoxy)acetyl)-N-((S)-1-oxo-3-((S)-2-oxopyrrolidin-3-yl)propan-2-yl)-5-azaspiro[2.4]heptane-6-carboxamide]	39 nM	–	2900 nM
O=C[C@H](C[C@@H]1CCNC1=O)NC(=O)[C@@H]1[C@H]2CCC[C@H]2CN1C(=O)COc1ccc(Cl)c(Cl)c1 [MI-31, (1S,3aR,6aS)-2-(2-(3,4-Dichlorophenoxy)acetyl)-N-((S)-1-oxo-3-((S)-2-oxopyrrolidin-3-yl)propan-2-yl)octahydrocyclopenta[c]pyrrole-1-carboxamide, reference compound]	42 nM	≤ 50 nM	2700 nM
COc1cccc2[nH]c(C(=O)N3CC4(CCCC4)CC3C(=O)N[C@H](C=O)C[C@@H]3CCNC3=O)cc12 (stereo partly drawn) [MPI66-3, 2-(4-Methoxy-1H-indole-2-carbonyl)-N-((S)-1-oxo-3-((S)-2-oxopyrrolidin-3-yl)propan-2-yl)-2-azaspiro[4.4]nonane-3-carboxamide]	1500 nM	–	–
N#C[C@H](C[C@@H]1CCNC1=O)NC(=O)C1CC2(CCCCC2)CN1C(=O)OCc1ccccc1 (stereo partly drawn) [MPI67, Benzyl 3-(((S)-1-Cyano-2-((S)-2-oxopyrrolidin-3-yl)ethyl)carbamoyl)-2-azaspiro[4.5]decane-2-carboxylate]	1400 nM	–	–
N#C[C@H](C[C@@H]1CCNC1=O)NC(=O)C1CC2(CCCC2)CN1C(=O)OCc1ccccc1 (stereo partly drawn) [MPI66-1, Benzyl 3-(((S)-1-Cyano-2-((S)-2-oxopyrrolidin-3-yl)ethyl)carbamoyl)-2-azaspiro[4.4]nonane-2-carboxylate]	2200 nM	–	–
O=C[C@H](C[C@@H]1CCNC1=O)NC(=O)[C@@H]1C[C@@H](C2CCCCC2)CN1C(=O)OCc1ccccc1 [MPI56, (2S,4S)-Benzyl 4-Cyclohexyl-2-(((S)-1-oxo-3-((S)-2-oxopyrrolidin-3-yl)propan-2-yl)carbamoyl)pyrrolidine-1-carboxylate]	510 nM	–	–
CC(C)(C)O[C@@H]1C[C@@H](C(=O)N[C@H](C=O)C[C@@H]2CCNC2=O)N(C(=O)OCc2ccccc2)C1 [MPI55]	560 nM	–	–
COc1cccc2[nH]c(C(=O)N3CC4(CCCC4)CC3C(=O)N[C@H](C#N)C[C@@H]3CCCNC3=O)cc12 (stereo partly drawn) [MPI66-4, N-((S)-1-Cyano-2-((S)-2-oxopiperidin-3-yl)ethyl)-2-(4-methoxy-1H-indole-2-carbonyl)-2-azaspiro[4.4]nonane-3-carboxamide]	6000 nM	–	–
